Experimental data: ChEMBL document CHEMBL5233282, “Design, synthesis and bioactivity evaluation of novel N-phenyl-substituted evodiamine derivatives as potent anti-tumor agents” (Bioorg Med Chem, 2021)
Calls of active or inactive are those of the source. No cut-off for these calls is given here.

Experiments:
HGC-27 [1] = assay: Induction of apoptosis in human HGC-27 cells assessed as viable cells at 2.7 uM incubated for 24 hrs by Annexin-V/PI staining based flow cytometric analysis (reference value: 90.54%); format: functional; details: read-out: Activity
[2] = molecular target: T1, DNA topoisomerase 1 (Homo sapiens) (UniProt P11387); assay: Inhibition of topoisomerase 1 (unknown origin) at 100 uM incubated for 30 mins by gel electrophoresis analysis relative to control
T1 sequence (whole entry): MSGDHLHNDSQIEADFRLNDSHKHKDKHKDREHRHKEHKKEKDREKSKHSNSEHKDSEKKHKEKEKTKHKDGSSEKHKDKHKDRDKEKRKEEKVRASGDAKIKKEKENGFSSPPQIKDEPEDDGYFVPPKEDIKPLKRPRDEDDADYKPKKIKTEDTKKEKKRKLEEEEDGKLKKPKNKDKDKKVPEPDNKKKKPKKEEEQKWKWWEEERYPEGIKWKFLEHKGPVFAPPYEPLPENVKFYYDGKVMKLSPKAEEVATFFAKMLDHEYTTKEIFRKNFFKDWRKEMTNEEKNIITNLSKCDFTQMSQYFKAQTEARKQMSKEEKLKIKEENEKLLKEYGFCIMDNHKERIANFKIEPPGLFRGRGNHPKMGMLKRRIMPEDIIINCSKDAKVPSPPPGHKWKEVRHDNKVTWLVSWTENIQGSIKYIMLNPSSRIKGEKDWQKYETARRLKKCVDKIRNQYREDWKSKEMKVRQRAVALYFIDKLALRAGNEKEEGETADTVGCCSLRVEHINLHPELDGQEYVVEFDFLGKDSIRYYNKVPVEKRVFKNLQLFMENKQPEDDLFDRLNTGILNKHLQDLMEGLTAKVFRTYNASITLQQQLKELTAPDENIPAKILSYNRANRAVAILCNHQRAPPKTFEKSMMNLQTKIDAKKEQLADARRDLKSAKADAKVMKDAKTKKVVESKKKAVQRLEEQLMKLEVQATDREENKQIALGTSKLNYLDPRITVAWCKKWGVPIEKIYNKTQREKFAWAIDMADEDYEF

HGC-27 [3] = assay: Induction of apoptosis in human HGC-27 cells assessed as necrotic cells at 0.9 uM incubated for 24 hrs by Annexin-V/PI staining based flow cytometric analysis (reference value: 0.15%); format: functional
HGC-27 [4] = assay: Induction of apoptosis in human HGC-27 cells assessed as necrotic cells at 2.7 uM incubated for 24 hrs by Annexin-V/PI staining based flow cytometric analysis (reference value: 0.15%); format: functional
HT-29 [5] = assay: Cell cycle arrest in human HT-29 cells assessed as accumulation of cells at G2/M phase at 0.1 to 0.9 microM incubated for 24 hrs by flow cytometric analysis relative to control; format: functional; details: dose 0.1-0.9 µM
HGC-27 [6] = assay: Induction of apoptosis in human HGC-27 cells assessed as viable cells at 0.3 uM incubated for 24 hrs by Annexin-V/PI staining based flow cytometric analysis (reference value: 90.54%); format: functional; details: read-out: Activity
HT-29 [7] = assay: Induction of apoptosis in human HT-29 cells assessed as appearance of apoptotic bodies at 0.9 uM incubated for 24 hrs by giemsa staining based microscopic analysis; format: functional, cell-based
HGC-27 [8] = assay: Induction of apoptosis in human HGC-27 cells assessed as viable cells at 0.9 uM incubated for 24 hrs by Annexin-V/PI staining based flow cytometric analysis (reference value: 90.54%); format: functional; details: read-out: Activity
HGC-27 [9] = assay: Inhibition of cell invasion in human HGC-27 cells at 0.15 to 0.6 uM incubated for 24 hrs by transwell assay; format: functional, cell-based; details: dose 0.15-0.6 µM
HT-29 [10] = assay: Induction of apoptosis in human HT-29 cells assessed as late apoptotic cells at 0.1 uM incubated for 24 hrs by Annexin-V/PI staining based flow cytometric analysis (reference value: 4.50%); format: functional
HGC-27 [11] = assay: Inhibition of cell migration in human HGC-27 cells at 0.1 to 0.9 uM incubated for 24 hrs by wound healing assay; format: functional, cell-based; details: dose 0.1-0.9 µM
[12] = molecular target: T1, DNA topoisomerase 1 (Homo sapiens); assay: Inhibition of topoisomerase 1 (unknown origin) at 200 uM incubated for 30 mins by gel electrophoresis analysis relative to control
HGC-27 [13] = assay: Induction of apoptosis in human HGC-27 cells assessed as early apoptotic cells at 0.9 uM incubated for 24 hrs by Annexin-V/PI staining based flow cytometric analysis (reference value: 0.09%); format: functional
HT-29 [14] = assay: Inhibition of colony formation in human HT-29 cells incubated for 7 days by crystal purple staining based analysis; format: functional, cell-based; details: dose 0.03-0.3 µM, time 7.0 day
HGC-27 [15] = assay: Inhibition of PI3K/AKT signalling pathway in human HGC-27 cells assessed as decrease in phosphorylated AKT level at 0.1 to 0.9 uM incubated for 24 hrs by Western blot analysis; format: cell-based; details: dose 0.1-0.9 µM

With `O=C1c2ccccc2N(c2cccc(F)c2)C2c3[nH]c4ccccc4c3CCN12` (stereo not given) the viability at 2.7 µM (HGC-27 [1]) was 60.3%, the inhibition [2] was “inactive” and the Activity (HGC-27 [3]) was 3.73%. It also gave an Activity (HGC-27 [4]) of 3.02%, an Activity (HT-29 [5]) of 16.04% and a viability at 0.3 µM (HGC-27 [6]) of 67.2%. For the same compound, the Activity (HT-29 [7]) was “Active”, the viability at 0.9 µM (HGC-27 [8]) was 59.9% and the inhibition (HGC-27 [9]) was “Active”. For the same compound, the Activity (HT-29 [10]) was 5.37%, the inhibition (HGC-27 [11]) was “Active” and the inhibition [12] was 11.6%. For the same compound, the Activity (HGC-27 [13]) was 0.58%, the inhibition (HT-29 [14]) was “Dose-Dependent Effect” and the inhibition (HGC-27 [15]) was “Active”.
